Test results as given in patent publication US20130210057A1, “USE OF LABEL-FREE BIOSENSORS TO UNDERSTAND AND IDENTIFY TREATMENT FOR CANCER” (CORNING INCORPORATED, priority 2012, published 2013).
Entries after “also recorded” stand apart in the source; their conditions may differ. Where two headings read alike, the source gives them in different places. Ends that are not written are not given here.

Key:
[1] = system: HCT116-PTEN Null cell line; assay: Label-free RWG biosensor DMR assay; format: cell-based, human; settings: for sensitivity of kinase inhibitor drug-induced DMR to PTEN deletion / kinase inhibitor drug-induced DMR signal: 16 μM; for sensitivity of kinase inhibitor drug-induced DMR to PTEN deletion: PTEN null vs parental; for kinase inhibitor drug-induced DMR signal: HCT116-PTEN null
Source text: (§1) EPIC® beta version wavelength interrogation system (Corning Inc., NY) was used for whole cell sensing. This system consists of a temperature-control unit, an optical detection unit, and an on-board liquid handling unit with robotics. The detection unit is centered on integrated fiber optics, and enables kinetic measures of cellular responses with a time interval of ˜15 sec. Also EPIC® commercial systems were used, with a liquid handler accessory attached to EPIC® reader system. Also, an Epic® RWG imager can be used.
(§2) The resonant waveguide grating (RWG) biosensor is capable of detecting minute changes in local index of refraction near the sensor surface and the waveguide thin film having gratings provide a cell culture surface. Since the local index of refraction within a cell is a function of density and its distribution of biomass (e.g., proteins, molecular complexes), the biosensor exploits its evanescent wave to non-invasively detect ligand-induced Dynamic Mass Redistribution (DMR) in native cells. When a cell is stimulated, it responds. That response is a redistribution of biomass in the cell. Upon stimulation, proteins, protein complexes, and/or organelles in the cells move. The evanescent wave extends into the cells and exponentially decays over distance, leading to a characteristic sensing depth of ˜150 nm. Any optical response mediated through receptor activation only represents an average over the portion of the cell that the evanescent wave is sampling. The aggregation of many cellular events downstream to the receptor activation leads to a DMR signal having characteristic kinetics and amplitudes.
(§3) All assays were carried out at a controlled temperature (28° C.). At least two independent sets of experiments, each with at least three replicates, were performed.

[2] = system: HCT116 parental cell line; assay: Label-free RWG biosensor DMR assay; format: cell-based, human; settings: for kinase inhibitor drug-induced DMR signal: 16 μM
Source text: as §1, §2, §3

HCT116 PTEN null cells = assay: cAMP-Glo assay; format: cell-based, human; settings: 15 minutes incubation
Protocol: (§4) Cells were cultured in the McCoy's 5a complete growth medium overnight. The next day cAMP-Glo assay was performed according to manufacturer's instruction (Promega, Cat# V1502). Briefly, cell culture medium was removed by flipping the plate. […] Luminescence was measured using Tecan Salim II plate reader.
(§5) To screen endogenous receptors and their coupled signaling pathways, we first assembled a GPCR agonist focused library (Table 1). The library consists of 120 GPCR agonists covering over 150 known GPCRs, based on their known pharmacology including polypharmacology. For small molecule chemical agonists, the dose used was 10 micromolar. For peptide agonists, the dose used was 1 micromolar. For lipid agonists, the dose used was also 1 micromolar. For both peptides and lipids, these agonists were suspended in a solution containing 0.05% bovine […] to increase their stability.
(§6) cAMP assays were employed to investigate endogenous Gs-coupled receptors. FIG. 2 is a graph illustrating cAMP accumulation induced by GPCR agonists. The percentage of cAMP level after normalized to the forskolin-induced cAMP increase was plotted as a function of GPCR agonists. PCT116 parental (squares) was compared with HCT116-PTEN Null (diamonds) cell line.

HCT116 parental cells = assay: cAMP-Glo assay; format: cell-based, human; settings: 15 minutes incubation
Protocol: as §4, §5, §6

[3] = system: IGF1-induced DMR in HCT116-PTEN Null cell line; assay: DMR reporter assay: modulation of IGF1-induced DMR by kinase inhibitor pretreatment; settings: 2 nM IGF1; for alteration of the late response of the IGF1 DMR (signal at 50 min poststimulation) / impact on the early P-DMR amplitude of the IGF1 DMR: HCT116-PTEN Null; for alteration of the late response of the IGF1 DMR (signal at 50 min poststimulation): about 1 hr pretreatment at different doses; for impact on the early P-DMR amplitude of the IGF1 DMR / potency to increase the late IGF1 response, PTEN-deleted vs parental cell line: about 1 hr pretreatment
[4] = system: IGF1-induced DMR in HCT116 parental cell line; assay: as above; settings: 2 nM IGF1; for alteration of the late response of the IGF1 DMR (signal at 50 min poststimulation): about 1 hr pretreatment at different doses; for impact on the early P-DMR amplitude of the IGF1 DMR: about 1 hr pretreatment

IGF1: insulin growth factor-1 (IGF1) was tested, and the “agonist DMR in PTEN deleted cell line compared to parental cell line (sensitivity to PTEN deletion)” value ([1]; 10 μM agonist (EGF, IGF1 1 μM)) was “clear effects; also recorded: greater sensitivity”, the “agonist-induced DMR signal” value ([1]; HCT116-PTEN Null, untreated, 10 μM agonist (EGF, IGF1 1 μM)) was “robust DMR signal” and the “agonist-induced DMR signal” value ([2]; HCT116 parental, untreated, 10 μM agonist (EGF, IGF1 1 μM)) was “robust DMR signal”.
`CCCCC[C@H](O)/C=C/[C@H]1[C@H](O)CC(=O)[C@@H]1C/C=C\CCCC(=O)O` [PGE2, Peostaglandin E2] was tested, and the “cAMP accumulation (normalized to forskolin-induced cAMP increase)” value (HCT116 PTEN null cells) was “detectable cAMP accumulation” and the “cAMP accumulation (normalized to forskolin-induced cAMP increase)” value (HCT116 parental cells) was “detectable cAMP accumulation”.
In the case of `Cc1cn(-c2cc(NC(=O)c3ccc(C)c(Nc4nccc(-c5cccnc5)n4)c3)cc(C(F)(F)F)c2)cn1` [nilotinib], the “sensitivity of kinase inhibitor drug-induced DMR to PTEN deletion” value [1] is reported as “sensitive”.
For “EGF: epidermal growth factor (EGF) (NSDSECPLSHDGYCLHDGVCMYIEALDKYACNCVVGYIGERCQYRDLKWWELR; Epidermal growth factor; UniProt P01133 971-1023, looked up)”, the “agonist DMR in PTEN deleted cell line compared to parental cell line (sensitivity to PTEN deletion)” value ([1]; 10 μM agonist (EGF, IGF1 1 μM)) was “insensitive”.
For `COc1cc2ncnc(Nc3ccc(F)c(Cl)c3)c2cc1OCCCN1CCOCC1` [gefitinib], the “alteration of the late response of the IGF1 DMR (signal at 50 min poststimulation)” value (shortened to “alteration”) [3] was “increased in the dose-dependent manner”, the “impact on the early P-DMR amplitude of the IGF1 DMR” value (from here on “impact on the early P-DMR amplitude”) [3] was “little impact” and the “potency to increase the late IGF1 response, PTEN-deleted vs parental cell line” value [3] was “lower”. For the same molecule, the “alteration” value [4] was “increased in the dose-dependent manner” and the “impact on the early P-DMR amplitude” value [4] was “little impact”.
With `CNC(=O)c1cc(Oc2ccc(NC(=O)Nc3ccc(Cl)c(C(F)(F)F)c3)cc2)ccn1` [sorafenib] the “kinase inhibitor drug-induced DMR signal” value [1] was “did not result in any detectable DMR” and the “kinase inhibitor drug-induced DMR signal” value ([2]; HCT116 parental) was “did not result in any detectable DMR”.
With “Calcitonin (CGNLSTCMLGTYTQDFNKFHTFPQTAIGVGAP; ends and bridges not checked; cysteine pairing not given here; UniProt P01258 85-116, looked up) [peptide agonist of calcitonin receptor]” the “cAMP accumulation (normalized to forskolin-induced cAMP increase)” value (HCT116 PTEN null cells) was “detectable cAMP accumulation” and the “cAMP accumulation (normalized to forskolin-induced cAMP increase)” value (HCT116 parental cells) was “detectable cAMP accumulation”.
For `CCNC(=O)[C@H]1O[C@@H](n2cnc3c(N)nc(NCCc4ccc(CCC(=O)O)cc4)nc32)[C@H](O)[C@@H]1O` [CGS21680], the “cAMP accumulation (normalized to forskolin-induced cAMP increase)” value (HCT116 PTEN null cells) was “detectable cAMP accumulation” and the “cAMP accumulation (normalized to forskolin-induced cAMP increase)” value (HCT116 parental cells) was “detectable cAMP accumulation”.
For `Nc1ncnc2c1ncn2[C@@H]1O[C@H](CO)[C@@H](O)[C@H]1O` [adenosine, Adenosine], the “effect of cholera toxin (CTx) pretreatment on the agonist DMR” value [1] was “almost completely suppressed”, the “agonist DMR in PTEN deleted cell line compared to parental cell line (sensitivity to PTEN deletion)” value ([1]; 10 μM agonist (EGF, IGF1 1 μM)) was “greatly different” and the “receptor / signaling pathway activated (pathway deconvolution of DMR with toxins)” value (shortened to “receptor / signaling pathway activated”) ([1]; HCT116-PTEN Null, 10 μM agonist) was “primarily activates endogenous Gs-coupled adenosine A2B receptors”. For the same molecule, the “effect of pertussis toxin (PTx) pretreatment on the agonist DMR” value (from here on “effect of pertussis toxin”) ([1]; HCT116-PTEN Null, PTX 100 ng/ml overnight, 10 μM agonist) was “only accelerated”, the “effect of cholera toxin (CTx) pretreatment on the agonist DMR” value [2] was “almost completely suppressed” and the “receptor / signaling pathway activated” value ([2]; HCT116 parental, 10 μM agonist) was “primarily activates endogenous Gs-coupled adenosine A2B receptors”. For the same molecule, the “effect of pertussis toxin” value ([2]; HCT116 parental, PTX 100 ng/ml overnight, 10 μM agonist) was “only accelerated”.
With “Adrenomedulin (YRQSMNNFQGLRSFGCRFGTCTVQKLAHQIYQFTDKDKDNVAPRSKISPQGY; ends and bridges not checked; cysteine pairing not given here; UniProt P35318 95-146, looked up) [peptide agonist of adrenomedulin receptor]” the “cAMP accumulation (normalized to forskolin-induced cAMP increase)” value (HCT116 PTEN null cells) was “detectable cAMP accumulation” and the “cAMP accumulation (normalized to forskolin-induced cAMP increase)” value (HCT116 parental cells) was “detectable cAMP accumulation”.
For `Cc1ccc(NC(=O)c2ccc(CN3CCN(C)CC3)cc2)cc1Nc1nccc(-c2cccnc2)n1` [imatinib], the “alteration” value [4] was “dose-dependently increased” and the “sensitivity of kinase inhibitor drug-induced DMR to PTEN deletion” value [1] was “sensitive; also recorded: great sensitivity”.
With `CO[C@H]1C[C@@H]2CC[C@@H](C)[C@@](O)(O2)C(=O)C(=O)N2CCCC[C@H]2C(=O)O[C@H]([C@H](C)C[C@@H]2CC[C@@H](OC(=O)C(C)(CO)CO)[C@H](OC)C2)CC(=O)[C@H](C)/C=C(\C)[C@@H](O)[C@@H](OC)C(=O)[C@H](C)C[C@H](C)/C=C/C=C/C=C/1C` [temsirolimus] the “sensitivity of kinase inhibitor drug-induced DMR to PTEN deletion” value [1] was “suppressed or decreased the kinetics” and the “kinase inhibitor drug-induced DMR signal” value ([2]; HCT116 parental) was “detectable DMR”.
For `C#Cc1cccc(Nc2ncnc3cc(OCCOC)c(OCCOC)cc23)c1` [erlotinib], the “alteration” value [3] was “increased in the dose-dependent manner”, the “impact on the early P-DMR amplitude” value [3] was “little impact” and the “potency to increase the late IGF1 response, PTEN-deleted vs parental cell line” value [3] was “lower”. The “alteration” value [4] was “increased in the dose-dependent manner”, the “impact on the early P-DMR amplitude” value [4] was “little impact” and the “kinase inhibitor drug-induced DMR signal” value [1] was “very small DMR signals”. The “kinase inhibitor drug-induced DMR signal” value ([2]; HCT116 parental) was “very small DMR signals”.
For `CS(=O)(=O)CCNCc1ccc(-c2ccc3ncnc(Nc4ccc(OCc5cccc(F)c5)c(Cl)c4)c3c2)o1` [lapatinib], the “kinase inhibitor drug-induced DMR signal” value [1] was “did not result in any detectable DMR” and the “kinase inhibitor drug-induced DMR signal” value ([2]; HCT116 parental) was “did not result in any detectable DMR”.
With `CO[C@H]1C[C@@H]2CC[C@@H](C)[C@@](O)(O2)C(=O)C(=O)N2CCCC[C@H]2C(=O)O[C@H]([C@H](C)C[C@@H]2CC[C@@H](OCCO)[C@H](OC)C2)CC(=O)[C@H](C)/C=C(\C)[C@@H](O)[C@@H](OC)C(=O)[C@H](C)C[C@H](C)/C=C/C=C/C=C/1C` [everolimus] the “sensitivity of kinase inhibitor drug-induced DMR to PTEN deletion” value [1] was “suppressed or decreased the kinetics” and the “kinase inhibitor drug-induced DMR signal” value ([2]; HCT116 parental) was “detectable DMR”.
In the case of `C=C[C@@]1(C)CC(=O)[C@]2(O)[C@@]3(C)[C@@H](O)CCC(C)(C)[C@@H]3[C@H](O)[C@H](OC(C)=O)[C@@]2(C)O1` [forskolin], the DMR signal amplitude ([1]; HCT116-PTEN Null, GPCR agonist library profiling, 3-45 min poststimulation) is reported as “greater than 80 picometer” and the DMR signal amplitude ([2]; HCT116 parental, GPCR agonist library profiling, 3-45 min poststimulation) is reported as “greater than 80 picometer”.
For “Vasoactive intestinal peptide (HSDAVFTDNYTRLRKQMAVKKYLNSILN; ends and bridges not checked; UniProt P01282 125-152, looked up) [VIP]”, the “cAMP accumulation (normalized to forskolin-induced cAMP increase)” value (HCT116 PTEN null cells) was “detectable cAMP accumulation” and the “cAMP accumulation (normalized to forskolin-induced cAMP increase)” value (HCT116 parental cells) was “detectable cAMP accumulation”.
`CNC[C@H](O)c1ccc(O)c(O)c1` [epinephrine, (−)epinephrine] was tested, and the “agonist DMR in PTEN deleted cell line compared to parental cell line (sensitivity to PTEN deletion)” value [1] was “greatly differed”, the “effect of pertussis toxin” value [1] was “little effect” and the “receptor / signaling pathway activated” value [1] was “primarily activates endogenous Gs-coupled beta1-adrenergic receptor”. The “effect of pertussis toxin” value [2] was “little effect” and the “receptor / signaling pathway activated” value [2] was “primarily activates endogenous Gs-coupled beta1-adrenergic receptor”.
